Experimental data: ChEMBL document CHEMBL1201862, “PubChem BioAssay data set” (2004)
“And” between values parts separate entries of the source, which are not always exact repeats. Equal entries are not always repeated.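 Values below derive from 48-hour exposures of cells grown in 96-well plates, with endpoints linearly interpolated between the two concentrations bracketing the appropriate inhibition level. Here, GI50 denotes the concentration required for 50% inhibition of growth.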 The source made the active and inactive calls. No stated cut-off is given here; in the data, active = GI50 up to about 1.1 µM and inactive = higher.

Legend:
Test in all cases: NCI anticancer screen, dose series, 48 h
HCC 2998 = system: HCC 2998
NCI-H226 = system: NCI-H226
K562 = system: K562
IGROV-1 = system: IGROV-1
KM12 = system: KM12
SF-295 = system: SF-295
HCT-116 = system: HCT-116
CAKI-1 = system: CAKI-1
NCI-H522 = system: NCI-H522
TK-10 = system: TK-10
SN12C = system: SN12C
OVCAR-3 = system: OVCAR-3
LXFL 529 = system: LXFL 529
SK-MEL-28 = system: SK-MEL-28
HL-60 = system: HL-60
SR = system: SR
A549 = system: A549
SNB-78 = system: SNB-78
ACHN = system: ACHN
RXF 631 = system: RXF 631
HT-29 = system: HT-29
OVCAR-4 = system: OVCAR-4
U-251 = system: U-251
SF-539 = system: SF-539
RPMI-8226 = system: RPMI-8226
OVCAR-5 = system: OVCAR-5
LOX IMVI = system: LOX IMVI
SNB-75 = system: SNB-75
UACC-62 = system: UACC-62
M19-MEL = system: M19-MEL
786-0 = system: 786-0
UO-31 = system: UO-31
OVCAR-8 = system: OVCAR-8
NCI-H460 = system: NCI-H460
Malme-3M = system: Malme-3M
A498 = system: A498
SW-620 = system: SW-620
NCI-H23 = system: NCI-H23
M14 = system: M14
KM-20L2 = system: KM-20L2
SK-OV-3 = system: SK-OV-3
SF-268 = system: SF-268
UACC-257 = system: UACC-257
SNB-19 = system: SNB-19
DMS-114 = system: DMS-114
HCT-15 = system: HCT-15
HOP-62 = system: HOP-62
XF498 = system: XF498
MOLT-4 = system: MOLT-4
DLD-1 = system: DLD-1
DMS-273 = system: DMS-273
SK-MEL-5 = system: SK-MEL-5
CCRF-CEM = system: CCRF-CEM
RXF 393 = system: RXF 393
EKVX = system: EKVX
SK-MEL-2 = system: SK-MEL-2

Measured: GI50

CC1OC(n2ncc(=O)[nH]c2=O)C=CC1=O (centres undefined)
inactive: HCC 2998 > 100 µM | NCI-H226 > 100 µM | K562 33.1 µM and 44 µM | IGROV-1 > 100 µM | KM12 46.1 µM and 63 µM | SF-295 52.6 µM | HCT-116 30.4 µM and 55.8 µM | CAKI-1 > 100 µM | NCI-H522 20 µM and 18.8 µM | TK-10 > 100 µM and 71.4 µM | SN12C 70.3 µM and 35.8 µM | OVCAR-3 95.3 µM | LXFL 529 > 100 µM and 59 µM | SK-MEL-28 31.9 µM and 21.8 µM | HL-60 26.2 µM and 23.7 µM | SR 26.7 µM and 33.5 µM | A549 > 100 µM | SNB-78 21.5 µM and 26.9 µM | ACHN 27.9 µM and 37.9 µM | RXF 631 13.1 µM and 16.4 µM | HT-29 41.8 µM and 52.6 µM | OVCAR-4 > 100 µM | U-251 50.7 µM and 41.2 µM | SF-539 40.2 µM and 24.2 µM | RPMI-8226 33 µM and 24.3 µM | OVCAR-5 > 100 µM | LOX IMVI > 100 µM | SNB-75 44.5 µM and 55.5 µM | UACC-62 31.8 µM and 60.4 µM | M19-MEL 50.8 µM and 71.3 µM | 786-0 36.3 µM and 55.2 µM | UO-31 > 100 µM | OVCAR-8 37.3 µM and 41.1 µM | NCI-H460 > 100 µM and 63.1 µM | Malme-3M 22.1 µM and 18.8 µM

Clc1ccc2c(c1)[nH]c1c2nc2ccccn21
inactive: NCI-H226 22.4 µM | A498 27.1 µM | IGROV-1 30.8 µM | KM12 19.3 µM | SW-620 18.5 µM | NCI-H23 24.7 µM | M14 24.7 µM | HCT-116 21.2 µM | KM-20L2 27.9 µM | NCI-H522 19.5 µM | TK-10 > 10 µM | SK-MEL-28 21.3 µM | SR 25.1 µM | A549 50.1 µM | SNB-78 24 µM | RXF 631 43 µM | HT-29 21.9 µM | SF-539 22.6 µM | RPMI-8226 23.7 µM | SK-OV-3 30.3 µM | SF-268 28.6 µM | 786-0 22.1 µM | UO-31 19.5 µM | UACC-257 29.2 µM | SNB-19 22.4 µM

CCCCCCCCCC1C(C)c2c([nH]c3ccccc23)C2C(=O)N(c3ccccc3)C(=O)C21 (centres undefined)
11 µM: HCT-15
inactive: HCC 2998 12.9 µM | NCI-H226 12.2 µM | DMS-114 14.7 µM | K562 3.67 µM | A498 19.2 µM | IGROV-1 18.8 µM | KM12 4.79 µM | SW-620 35.7 µM | NCI-H23 3.72 µM | M14 13.1 µM | SF-295 15.4 µM | HCT-116 2.94 µM | CAKI-1 14 µM | KM-20L2 12.1 µM | HOP-62 17.2 µM | TK-10 28 µM | XF498 11.2 µM | OVCAR-3 3.43 µM | LXFL 529 35.6 µM | SK-MEL-28 2.29 µM | HL-60 3.71 µM | A549 17.7 µM | SNB-78 21.4 µM | ACHN 10.8 µM | RXF 631 3.05 µM | HT-29 10.8 µM | MOLT-4 2.54 µM | OVCAR-4 5.9 µM | DLD-1 14.9 µM | DMS-273 12.5 µM | U-251 13.8 µM | SF-539 19.7 µM | RPMI-8226 3.83 µM | SK-MEL-5 17 µM | SK-OV-3 18.2 µM | OVCAR-5 17.4 µM | SNB-75 13.5 µM | UACC-62 18.3 µM | CCRF-CEM 3.1 µM | RXF 393 1.85 µM | 786-0 12.4 µM | EKVX 54 µM | UO-31 13 µM | UACC-257 15.8 µM | OVCAR-8 7.78 µM | SK-MEL-2 16.8 µM | NCI-H460 4.18 µM | Malme-3M 41.9 µM
